Consider one compound from US20080107623A1, “Inhibitors of Hepatitis C Virus” (Bristol-Myers Squibb Company, priority 2006, published 2008).

One may read the IC50 as the concentration that gives 50% inhibition. A higher IC50 goes with weaker potency in that assay.

The assay deals with T1, human liver cathepsin B (Homo sapiens, UniProt P07858).
T1 construct: purchased Sigma or EMDbiosciences; host or cells: human liver (as named)
In words: Specificity assay, cathepsin B (AMC substrate). Format: biochemical. How it is done:
The specificities of compounds of the present disclosure were determined against a variety of serine proteases: human neutrophil elastase (HNE), porcine pancreatic elastase (PPE) and human pancreatic chymotrypsin and one cysteine protease: human liver cathepsin B. In all cases, a 96-well plate format protocol using colorimetric p-nitroaniline (pNA) substrate or fluorometric Amino-Methyl-Coumarin (AMC) substrate, specific for each enzyme was used as described previously (PCT Patent Application No. WO 00/09543) with some modifications. All enzymes were purchased from Sigma or EMDbiosciences while the substrates were from Bachem.
Each pNA assay included a 2 h enzyme-inhibitor pre-incubation at room temperature followed by addition of substrate and hydrolysis to ˜15% conversion as measured on a Spectramax Pro microplate reader. The cathepsin B assay was initiated by adding substrate to a 10 min enzyme-inhibitor pre-incubation at room temperature, and the assay plate measured immediately using the Cytofluor Series 4000. Compound concentrations varied from 100 to 0.4 μM depending on their potency. […]
The percentage of inhibition was calculated using the formula: [1−((UVinh−UVblank)/(UVctl−UVblank))]×100 […]

Turning to `COc1c(O[C@@H]2C[C@H]3C(=O)N[C@]4(C(=O)NS(=O)(=O)C5CC5)C[C@H]4/C=C\CCCCC[C@H](NC(=O)OC(C)(C)C)C(=O)N3C2)ccc2c(Cl)nccc12` [Compound 3], the IC50 is no less than 100 µM.
